{"source": "paper PMC7859440", "about": "“Transporter Gene Regulation in Sandwich Cultured Human Hepatocytes Through the Activation of Constitutive Androstane Receptor (CAR) or Aryl Hydrocarbon Receptor (AhR)” (Frontiers in Pharmacology, 2021)", "origin": "cited, not measured here", "system": "SLC51B", "parameters": "method as in Niu et al., 2019", "details": "rifampin (PXR ligand), human and monkey hepatocytes; ref Niu et al., 2019; cited from earlier work"}
{"compound": "CO[C@H]1/C=C/O[C@@]2(C)Oc3c(C)c(O)c4c(O)c(c(/C=N/N5CCN(C)CC5)c(O)c4c3C2=O)NC(=O)/C(C)=C\\C=C\\[C@H](C)[C@H](O)[C@@H](C)[C@@H](O)[C@@H](C)[C@H](OC(C)=O)[C@@H]1C", "note": "[rifampin]", "values": [{"measurement": "SLC51B induction", "value": "greater than 10 fold"}]}
